According to ChEMBL document CHEMBL1201862, “PubChem BioAssay data set” (2004):
One block for each compound: values may come before it. Active and inactive are the calls of the source.

Key:
[1] = target: Tyrosine-protein kinase Fer (Homo sapiens, UniProt P16591); type: functional;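 also: FER tested as one member of a kinome panel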
[2] = target: Dual specificity tyrosine-phosphorylation-regulated kinase 3 (Homo sapiens, UniProt O43781); type: functional;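 also: measured as one member of a broad kinase panel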
[3] = target: Calcium/calmodulin-dependent protein kinase type II subunit gamma (Homo sapiens, UniProt Q13555); type: functional
Aurora kinase B = Aurora kinase B (Homo sapiens, UniProt Q96GD4); type: functional
[4] = target: Vascular endothelial growth factor receptor 3 (Homo sapiens, UniProt P35916); type: functional;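 also: value from a kinome-wide profiling panel, with FLT4 as the panel member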
[5] = target: Tyrosine-protein kinase SYK (Homo sapiens, UniProt P43405); type: functional
[6] = target: Serine/threonine-protein kinase pim-3 (Homo sapiens, UniProt Q86V86); type: functional;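 also: value obtained as one member of a broad kinase panel profiling effort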
[7] = target: Macrophage colony-stimulating factor 1 receptor (Homo sapiens, UniProt P07333); type: functional;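 also: value comes from the Navigating the Kinome screening panel, CSF1R member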
[8] = target: MAP/microtubule affinity-regulating kinase 3 (Homo sapiens, UniProt P27448); type: functional;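 also: MARK3 affinity measured as one member of a kinome panel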
[9] = target: Tyrosine-protein kinase FRK (Homo sapiens, UniProt P42685); type: functional;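 also: FRK tested as one member of a kinome panel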
[10] = target: Casein kinase I isoform delta (Homo sapiens, UniProt P48730); type: functional;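 also: measured as one member (CSNK1D) of a kinome panel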
[11] = target: Serine/threonine-protein kinase Chk1 (Homo sapiens, UniProt O14757); type: functional;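 also: measured as one member of a kinome-wide kinase profiling panel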
[12] = target: Dual specificity protein kinase CLK4 (Homo sapiens, UniProt Q9HAZ1); type: functional
[13] = target: Mitogen-activated protein kinase kinase kinase kinase 2 (Homo sapiens, UniProt Q12851); type: functional;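 also: measured as one member of a kinome-wide kinase panel, with MAP4K2 as the panel entry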
[14] = target: cAMP-dependent protein kinase catalytic subunit alpha (Homo sapiens, UniProt P17612); type: functional
[15] = target: Serine/threonine-protein kinase N2 (Homo sapiens, UniProt Q16513); type: functional
[16] = target: Serine/threonine-protein kinase Chk2 (Homo sapiens, UniProt O96017); type: functional;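 also: CHEK2 entry within a kinome-wide screening panel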
[17] = target: Proto-oncogene tyrosine-protein kinase Src (Homo sapiens, UniProt P12931); type: functional;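 also: SRC entry within a kinome-wide kinase profiling panel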
[18] = target: cGMP-dependent protein kinase 1 (Homo sapiens, UniProt Q13976); type: functional;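 also: value from a kinome panel screen with PRKG1 as the panel member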
[19] = target: MAP kinase-interacting serine/threonine-protein kinase 2 (Homo sapiens, UniProt Q9HBH9); type: functional
[20] = target: Tyrosine-protein kinase receptor TYRO3 (Homo sapiens, UniProt Q06418); type: functional;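 also: TYRO3 value obtained as one member of a kinome-wide profiling panel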
[21] = target: Homeodomain-interacting protein kinase 4 (Homo sapiens, UniProt Q8NE63); type: functional
[22] = target: Vascular endothelial growth factor receptor 2 (Homo sapiens, UniProt P35968); type: functional
[23] = target: BDNF/NT-3 growth factors receptor (Homo sapiens, UniProt Q16620); type: functional;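 also: NTRK2 measured as one member of a broad kinome-wide kinase profiling panel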
[24] = target: Dual specificity tyrosine-phosphorylation-regulated kinase 4 (Homo sapiens, UniProt Q9NR20); type: functional
[25] = target: Tyrosine-protein kinase Srms (Homo sapiens, UniProt Q9H3Y6); type: functional;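 also: SRMS measured as one member of a kinome-wide kinase profiling panel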
[26] = target: T1, Histone-lysine N-methyltransferase NSD2 (Homo sapiens, UniProt O96028); type: biochemical
T1 sequence (O96028 whole entry): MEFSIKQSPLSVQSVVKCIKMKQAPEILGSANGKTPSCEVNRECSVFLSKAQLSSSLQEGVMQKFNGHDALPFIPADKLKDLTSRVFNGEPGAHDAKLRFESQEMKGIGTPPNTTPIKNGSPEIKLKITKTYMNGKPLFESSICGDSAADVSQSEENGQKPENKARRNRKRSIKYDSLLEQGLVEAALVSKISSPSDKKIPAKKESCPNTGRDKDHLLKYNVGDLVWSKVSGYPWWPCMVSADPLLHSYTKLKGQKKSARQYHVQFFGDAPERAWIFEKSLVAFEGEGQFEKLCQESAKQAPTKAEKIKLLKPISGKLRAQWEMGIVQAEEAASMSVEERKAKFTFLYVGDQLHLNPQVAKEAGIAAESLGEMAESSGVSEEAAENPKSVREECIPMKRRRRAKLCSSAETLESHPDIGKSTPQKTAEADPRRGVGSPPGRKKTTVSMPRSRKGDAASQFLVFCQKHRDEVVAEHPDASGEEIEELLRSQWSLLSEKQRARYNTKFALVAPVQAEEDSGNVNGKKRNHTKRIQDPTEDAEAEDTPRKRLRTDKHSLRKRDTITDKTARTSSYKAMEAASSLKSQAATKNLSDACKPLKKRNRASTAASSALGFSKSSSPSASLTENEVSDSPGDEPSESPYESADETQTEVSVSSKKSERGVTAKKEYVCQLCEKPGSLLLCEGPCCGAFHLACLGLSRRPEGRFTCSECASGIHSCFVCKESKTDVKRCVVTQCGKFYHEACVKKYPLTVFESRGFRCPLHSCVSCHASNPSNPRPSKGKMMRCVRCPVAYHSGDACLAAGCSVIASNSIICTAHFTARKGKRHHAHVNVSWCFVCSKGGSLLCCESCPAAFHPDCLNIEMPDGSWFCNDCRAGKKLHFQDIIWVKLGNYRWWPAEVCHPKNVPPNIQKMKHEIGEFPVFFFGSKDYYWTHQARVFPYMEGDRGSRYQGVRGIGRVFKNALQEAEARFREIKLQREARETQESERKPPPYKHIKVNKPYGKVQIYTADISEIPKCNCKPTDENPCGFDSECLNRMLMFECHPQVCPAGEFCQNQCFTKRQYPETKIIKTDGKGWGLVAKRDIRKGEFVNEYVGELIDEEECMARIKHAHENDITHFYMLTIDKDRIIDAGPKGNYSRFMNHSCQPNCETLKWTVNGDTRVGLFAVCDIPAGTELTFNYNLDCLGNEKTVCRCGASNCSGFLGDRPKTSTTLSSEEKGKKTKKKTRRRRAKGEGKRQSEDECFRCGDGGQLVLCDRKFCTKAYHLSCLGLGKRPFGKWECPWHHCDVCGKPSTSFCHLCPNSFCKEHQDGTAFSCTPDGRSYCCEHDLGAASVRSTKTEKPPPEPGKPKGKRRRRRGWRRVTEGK

Chain of Proto-oncogene tyrosine-protein kinase Src (P12931 2-536 limits assumed): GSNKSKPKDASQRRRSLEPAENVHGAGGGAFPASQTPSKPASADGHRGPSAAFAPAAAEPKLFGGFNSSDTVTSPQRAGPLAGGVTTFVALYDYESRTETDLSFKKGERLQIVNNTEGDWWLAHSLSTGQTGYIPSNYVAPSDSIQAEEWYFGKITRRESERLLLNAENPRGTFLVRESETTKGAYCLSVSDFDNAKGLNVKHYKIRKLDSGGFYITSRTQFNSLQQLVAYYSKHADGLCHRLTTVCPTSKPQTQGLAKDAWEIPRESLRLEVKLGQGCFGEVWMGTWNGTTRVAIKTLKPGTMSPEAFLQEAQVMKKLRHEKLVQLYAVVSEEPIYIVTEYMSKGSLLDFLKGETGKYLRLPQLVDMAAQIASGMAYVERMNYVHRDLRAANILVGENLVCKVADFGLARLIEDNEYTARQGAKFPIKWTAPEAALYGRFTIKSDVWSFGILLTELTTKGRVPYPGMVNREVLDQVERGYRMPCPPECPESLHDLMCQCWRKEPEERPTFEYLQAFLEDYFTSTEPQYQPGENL
Chain of Vascular endothelial growth factor receptor 3 (P35916 whole entry): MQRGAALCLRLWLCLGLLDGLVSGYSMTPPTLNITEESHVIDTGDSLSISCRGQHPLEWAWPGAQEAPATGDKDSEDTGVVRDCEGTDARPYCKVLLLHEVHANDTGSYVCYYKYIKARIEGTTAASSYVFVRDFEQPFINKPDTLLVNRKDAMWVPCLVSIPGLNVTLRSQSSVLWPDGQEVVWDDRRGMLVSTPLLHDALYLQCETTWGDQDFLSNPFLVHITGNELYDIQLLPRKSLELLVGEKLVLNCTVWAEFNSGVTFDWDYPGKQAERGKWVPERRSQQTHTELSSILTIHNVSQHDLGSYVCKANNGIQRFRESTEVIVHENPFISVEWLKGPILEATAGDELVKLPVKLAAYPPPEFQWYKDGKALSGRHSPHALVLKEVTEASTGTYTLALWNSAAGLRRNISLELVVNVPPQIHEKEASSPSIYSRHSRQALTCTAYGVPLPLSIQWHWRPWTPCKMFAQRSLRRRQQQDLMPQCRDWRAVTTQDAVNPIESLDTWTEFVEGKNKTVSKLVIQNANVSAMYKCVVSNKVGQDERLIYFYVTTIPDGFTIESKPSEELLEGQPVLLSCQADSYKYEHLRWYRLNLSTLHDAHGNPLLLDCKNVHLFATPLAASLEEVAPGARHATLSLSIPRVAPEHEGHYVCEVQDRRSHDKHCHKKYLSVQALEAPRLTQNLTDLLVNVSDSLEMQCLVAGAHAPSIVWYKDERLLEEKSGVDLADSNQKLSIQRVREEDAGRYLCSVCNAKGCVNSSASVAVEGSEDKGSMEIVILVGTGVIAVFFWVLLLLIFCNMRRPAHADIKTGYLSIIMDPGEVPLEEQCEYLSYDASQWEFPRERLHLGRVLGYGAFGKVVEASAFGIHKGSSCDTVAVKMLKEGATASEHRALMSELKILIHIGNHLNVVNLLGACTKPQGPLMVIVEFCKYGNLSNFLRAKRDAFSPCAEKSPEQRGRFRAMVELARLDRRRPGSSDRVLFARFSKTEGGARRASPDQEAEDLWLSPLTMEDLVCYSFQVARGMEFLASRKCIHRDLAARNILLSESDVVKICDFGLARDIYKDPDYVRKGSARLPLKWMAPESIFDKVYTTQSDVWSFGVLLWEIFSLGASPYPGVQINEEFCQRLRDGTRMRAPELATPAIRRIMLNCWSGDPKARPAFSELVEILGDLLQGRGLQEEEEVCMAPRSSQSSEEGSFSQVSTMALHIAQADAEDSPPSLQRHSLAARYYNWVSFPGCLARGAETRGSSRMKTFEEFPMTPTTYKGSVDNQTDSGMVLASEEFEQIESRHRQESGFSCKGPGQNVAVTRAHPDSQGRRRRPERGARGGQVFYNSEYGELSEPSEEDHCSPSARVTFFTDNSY
Chain of Serine/threonine-protein kinase Chk2 (O96017 whole entry): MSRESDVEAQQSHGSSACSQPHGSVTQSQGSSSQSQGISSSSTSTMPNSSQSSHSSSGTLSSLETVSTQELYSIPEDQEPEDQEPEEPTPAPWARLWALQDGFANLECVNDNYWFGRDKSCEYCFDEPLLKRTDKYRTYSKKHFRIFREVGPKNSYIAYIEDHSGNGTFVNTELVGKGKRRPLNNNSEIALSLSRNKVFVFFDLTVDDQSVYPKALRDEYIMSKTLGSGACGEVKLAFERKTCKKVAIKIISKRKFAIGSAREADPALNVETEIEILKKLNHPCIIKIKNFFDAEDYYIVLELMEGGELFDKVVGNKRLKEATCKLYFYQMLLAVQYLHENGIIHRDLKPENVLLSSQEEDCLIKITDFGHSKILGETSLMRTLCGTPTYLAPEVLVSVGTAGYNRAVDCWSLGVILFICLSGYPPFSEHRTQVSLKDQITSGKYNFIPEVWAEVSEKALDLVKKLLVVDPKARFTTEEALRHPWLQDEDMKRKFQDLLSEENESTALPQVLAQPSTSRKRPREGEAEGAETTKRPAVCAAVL
Chain of Homeodomain-interacting protein kinase 4 (Q8NE63 whole entry): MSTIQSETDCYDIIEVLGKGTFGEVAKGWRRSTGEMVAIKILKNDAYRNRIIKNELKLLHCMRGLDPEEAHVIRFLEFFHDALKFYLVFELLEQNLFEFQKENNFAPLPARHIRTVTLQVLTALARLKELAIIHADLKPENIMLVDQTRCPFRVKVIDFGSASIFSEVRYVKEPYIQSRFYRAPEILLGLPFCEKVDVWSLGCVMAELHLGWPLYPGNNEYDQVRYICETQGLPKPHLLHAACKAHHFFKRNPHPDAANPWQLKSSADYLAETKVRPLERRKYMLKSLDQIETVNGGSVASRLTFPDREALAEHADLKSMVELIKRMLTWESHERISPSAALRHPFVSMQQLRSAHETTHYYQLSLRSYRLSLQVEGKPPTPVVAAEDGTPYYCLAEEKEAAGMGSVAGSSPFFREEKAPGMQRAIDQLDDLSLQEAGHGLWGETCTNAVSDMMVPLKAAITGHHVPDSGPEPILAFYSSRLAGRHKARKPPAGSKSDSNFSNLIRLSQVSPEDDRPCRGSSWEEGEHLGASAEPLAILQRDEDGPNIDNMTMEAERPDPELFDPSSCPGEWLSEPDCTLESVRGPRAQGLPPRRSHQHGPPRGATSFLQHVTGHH
Chain of Mitogen-activated protein kinase kinase kinase kinase 2 (Q12851 whole entry): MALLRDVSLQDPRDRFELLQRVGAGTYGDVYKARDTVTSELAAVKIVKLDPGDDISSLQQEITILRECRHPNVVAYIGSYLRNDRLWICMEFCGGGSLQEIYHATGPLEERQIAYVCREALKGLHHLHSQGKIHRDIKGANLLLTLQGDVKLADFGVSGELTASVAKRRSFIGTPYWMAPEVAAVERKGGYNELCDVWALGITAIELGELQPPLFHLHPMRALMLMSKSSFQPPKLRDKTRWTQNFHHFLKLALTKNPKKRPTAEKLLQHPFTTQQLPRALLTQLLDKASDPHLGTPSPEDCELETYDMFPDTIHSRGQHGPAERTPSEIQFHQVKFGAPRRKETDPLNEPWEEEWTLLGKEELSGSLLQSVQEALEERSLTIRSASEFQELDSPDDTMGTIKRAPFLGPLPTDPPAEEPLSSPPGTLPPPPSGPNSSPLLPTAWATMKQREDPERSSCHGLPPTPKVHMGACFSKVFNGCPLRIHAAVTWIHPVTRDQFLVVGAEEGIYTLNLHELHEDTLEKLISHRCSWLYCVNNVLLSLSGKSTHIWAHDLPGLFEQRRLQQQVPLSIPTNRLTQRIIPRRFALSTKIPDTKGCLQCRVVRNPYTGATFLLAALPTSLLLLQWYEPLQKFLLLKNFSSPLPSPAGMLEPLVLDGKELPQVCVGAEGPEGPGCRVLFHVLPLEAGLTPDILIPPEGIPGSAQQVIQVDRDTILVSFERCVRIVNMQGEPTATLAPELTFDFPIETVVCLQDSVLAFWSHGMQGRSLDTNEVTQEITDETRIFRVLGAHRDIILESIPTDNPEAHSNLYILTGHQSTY
Chain of Dual specificity protein kinase CLK4 (Q9HAZ1 whole entry): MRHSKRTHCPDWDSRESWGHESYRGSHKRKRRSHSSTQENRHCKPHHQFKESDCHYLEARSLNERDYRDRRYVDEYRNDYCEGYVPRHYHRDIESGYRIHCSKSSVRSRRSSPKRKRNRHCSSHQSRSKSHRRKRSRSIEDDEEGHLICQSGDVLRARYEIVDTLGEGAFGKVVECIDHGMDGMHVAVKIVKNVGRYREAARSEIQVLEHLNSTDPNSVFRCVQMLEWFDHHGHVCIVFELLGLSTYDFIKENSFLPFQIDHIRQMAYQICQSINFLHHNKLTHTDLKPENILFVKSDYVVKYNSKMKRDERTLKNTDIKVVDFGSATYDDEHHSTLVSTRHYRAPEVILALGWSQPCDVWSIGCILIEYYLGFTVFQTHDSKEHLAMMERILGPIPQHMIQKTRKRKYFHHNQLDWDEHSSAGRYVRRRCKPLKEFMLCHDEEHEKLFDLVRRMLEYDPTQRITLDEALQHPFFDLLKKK
Chain of Aurora kinase B (Q96GD4 whole entry): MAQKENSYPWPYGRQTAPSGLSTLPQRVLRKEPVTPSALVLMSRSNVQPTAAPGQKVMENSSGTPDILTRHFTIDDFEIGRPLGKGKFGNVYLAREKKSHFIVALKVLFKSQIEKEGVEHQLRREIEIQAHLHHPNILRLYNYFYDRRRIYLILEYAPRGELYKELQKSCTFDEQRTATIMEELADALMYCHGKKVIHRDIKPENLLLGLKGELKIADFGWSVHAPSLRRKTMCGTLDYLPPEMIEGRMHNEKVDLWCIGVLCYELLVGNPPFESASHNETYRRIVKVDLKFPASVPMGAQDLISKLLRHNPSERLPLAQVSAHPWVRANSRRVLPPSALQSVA

Ki [1]: > 1.58 µM (inactive) | Ki [2]: > 6.31 µM (inactive) | Ki [3]: > 6.31 µM (inactive) | Ki (Aurora kinase B): 0.158 µM (active) | Ki [4]: > 6.31 µM (inactive) | Ki [5]: > 1.58 µM (inactive) | Ki [6]: > 7.94 µM (inactive) | Ki [7]: > 2.51 µM (inactive) | Ki [8]: 0.794 µM (active) | Ki [9]: > 2.51 µM (inactive) | Ki [10]: > 7.94 µM (inactive) | Ki [11]: > 7.94 µM (inactive) | Ki [12]: > 10 µM (inactive) | Ki [13]: > 6.31 µM (inactive) | Ki [14]: > 7.94 µM (inactive) | Ki [15]: > 7.94 µM (inactive) | Ki [16]: > 1.58 µM (inactive) | Ki [17]: > 2 µM (inactive) | Ki [18]: > 2 µM (inactive) | Ki [19]: > 10 µM (inactive) | Ki [20]: > 2 µM (inactive) | Ki [21]: > 7.94 µM (inactive) | Ki [22]: > 7.94 µM (inactive) | Ki [23]: > 5.01 µM (inactive) | Ki [24]: > 7.94 µM (inactive) | Ki [25]: > 1.58 µM (inactive)
Structure (SMILES): Cn1cncc1C(OCc1c(-c2ccc(OC(F)(F)F)cc2)cc(C#N)c(=O)n1C)c1ccc(C#N)cc1 (configuration not stated)

Structure (SMILES): CCc1ccc(S(=O)(=O)/N=C2\C=C(NS(=O)(=O)c3ccccc3)C(=O)c3ccccc32)cc1
AC50 [26]: 5.4 µM (active)
